Experiment [1] has as its system Staphylococcus aureus.
In experiment [2] the test system is Staphylococcus aureus. This is another data set of the same source.
Description: Bactericidal activity against Staphylococcus aureus assessed number of surviving colonies after 24 hrs
Experiment [3] concerns Pseudomonas aeruginosa.
Description: (§1) Antibacterial activity against Pseudomonas aeruginosa assessed as growth inhibition after 24 hrs by turbidimetric method
Experiment [4] has as its system Pseudomonas aeruginosa. The source holds these as a separate data set.
The test system of experiment [5] is Staphylococcus aureus. Description: Antibacterial activity against Staphylococcus aureus assessed as growth inhibition after 24 hrs by turbidimetric method. Type of experiment: functional.
The subject of experiment [6] is Pseudomonas aeruginosa. The experiment can be described thus: microbe, parasite or virus in culture. To be noted: 24 h. Type of experiment: functional.
Description: as §1
Experiment [7] has as its system Pseudomonas aeruginosa. Description: Bactericidal activity against Pseudomonas aeruginosa assessed number of surviving colonies after 24 hrs. The note with it: read-out: MBC99.9. The class given is functional.
Experiment [8] deals with Pseudomonas aeruginosa. Description: Antibacterial activity against Pseudomonas aeruginosa using 24 hrs aged compound solutions by cup diffusion method. Type of experiment: functional, organism-based.
The test system of experiment [9] is Staphylococcus aureus. Description: Antibacterial activity against Staphylococcus aureus assessed as growth inhibition after 24 hrs in presence of urea by turbidimetric method. Type of experiment: functional.
For experiment [10], the system named is Pseudomonas aeruginosa. The experiment can be described thus: Antibacterial activity against Pseudomonas aeruginosa assessed as growth inhibition after 24 hrs in presence of urea by turbidimetric method. The class given is functional.
Experiment [11] concerns Pseudomonas aeruginosa. The experiment can be described thus: Bactericidal activity against Pseudomonas aeruginosa assessed number of surviving colonies after 24 hrs in presence of urea. The class given is functional. The note with it: read-out: MBC99.9.
For experiment [12], the system named is Staphylococcus aureus. The experiment can be described thus: Bactericidal activity against Staphylococcus aureus […] assessed number of surviving colonies after 24 hrs in presence of carbonate. The class given is functional, organism-based.
The subject of experiment [13] is Staphylococcus aureus. The experiment can be described thus: Antibacterial activity against Staphylococcus aureus assessed as growth inhibition after 24 hrs in presence of carbonate by turbidimetric method. Type of experiment: functional.
The subject of experiment [14] is Pseudomonas aeruginosa. The experiment can be described thus: Antibacterial activity against Pseudomonas aeruginosa assessed as growth inhibition after 24 hrs in presence of carbonate by turbidimetric method. Type of experiment: functional.
Experiment [15] deals with Staphylococcus aureus. Description: Bactericidal activity against Staphylococcus aureus […] assessed number of surviving colonies after 24 hrs in presence of urea. Type of experiment: functional, organism-based.
Experiment [16] relates to Pseudomonas aeruginosa. The experiment can be described thus: Bactericidal activity against Pseudomonas aeruginosa assessed number of surviving colonies after 24 hrs in presence of carbonate. Type of experiment: functional. To be noted: read-out: MBC99.9.
For experiment [17], the system named is Staphylococcus aureus. The experiment can be described thus: Antibacterial activity against Staphylococcus aureus at <125 ug/ml by cup diffusion method. Type of experiment: functional, organism-based.
Experiment [18] relates to Pseudomonas aeruginosa. The experiment can be described thus: Antibacterial activity against Pseudomonas aeruginosa at 125 ug/ml by cup diffusion method. The class given is functional, organism-based.
For experiment [19], the system named is Pseudomonas aeruginosa. The experiment can be described thus: Antibacterial activity against Pseudomonas aeruginosa at 7.8 ug/ml by cup diffusion method. Type of experiment: functional, organism-based.
In experiment [20] the test system is Staphylococcus aureus. Description: Antibacterial activity against Staphylococcus aureus at 250 ug/ml by cup diffusion method. Type of experiment: functional, organism-based.
In experiment [21] the test system is Staphylococcus aureus. The experiment can be described thus: Potency index, ratio of MIC for Staphylococcus aureus to MIC for Staphylococcus aureus assessed as growth inhibition in presence of urea. Type of experiment: functional.
The test system of experiment [22] is Pseudomonas aeruginosa. The experiment can be described thus: Potency index, ratio of MIC for Pseudomonas aeruginosa to MIC for Pseudomonas aeruginosa assessed as growth inhibition in presence of urea. The class given is functional.

Active and inactive are the calls of the source. The calls are words filed in the database; no cut-off is given here.

The values that follow come from ChEMBL document CHEMBL3751744, “Antibacterial activities of polythionates enhanced by carbonates” (2015).

Regarding `NC(N)=O`, the MIC entry in the experiment on Staphylococcus aureus [1] and in the experiment with Pseudomonas aeruginosa [3] was “inactive” throughout. For the same molecule, the MBC99.9 result in the experiment on Staphylococcus aureus [2] and with Pseudomonas aeruginosa [4] was “inactive” in each case.

As for `O=S(=O)([O-])SSSS(=O)(=O)[O-].[K+].[K+]`, the MIC in the experiment on Staphylococcus aureus [5] came out at 62.5 µg/mL; with Pseudomonas aeruginosa [6], 1.95 µg/mL; in the experiment with Pseudomonas aeruginosa [10], 15.6 µg/mL; in the experiment with Staphylococcus aureus [13] it was 125 µg/mL; in the experiment with Pseudomonas aeruginosa [14], 3.91 µg/mL. In addition, the MBC was 500 µg/mL with Pseudomonas aeruginosa [7], 1000 µg/mL in the experiment with Pseudomonas aeruginosa [11] and 1000 µg/mL in the experiment with Pseudomonas aeruginosa [16]. Further, the outcome with Pseudomonas aeruginosa [8] was Active. Also, the MIC result in the experiment on Staphylococcus aureus [9] was “inactive”. The MBC99.9 entry in the experiment on Staphylococcus aureus [12], in the experiment with Staphylococcus aureus [15] and in the experiment on Staphylococcus aureus [2] was “inactive” each time.

In the case of `O=S(=O)(O)SSS(=O)(=O)O`, the MIC entry in the experiment with Staphylococcus aureus [1] and in the experiment with Pseudomonas aeruginosa [3] was “inactive” each time. In addition, the MBC99.9 result with Staphylococcus aureus [2] and with Pseudomonas aeruginosa [4] was “inactive” each time.

As for `O=S(=O)(O)SS(=O)(=O)O`, the MIC result in the experiment on Staphylococcus aureus [1] and with Pseudomonas aeruginosa [3] was “inactive” in each case. Moreover, the MBC99.9 entry with Staphylococcus aureus [2] and with Pseudomonas aeruginosa [4] was “inactive” in each case.

Consider `O=S(O)(O)=S`, for which the MIC result with Staphylococcus aureus [1] and in the experiment on Pseudomonas aeruginosa [3] was “inactive” throughout. The MBC99.9 result with Staphylococcus aureus [2] and with Pseudomonas aeruginosa [4] was “inactive” each time.

Consider `O=S(=O)([O-])SSSSS(=O)(=O)[O-].[K+].[K+]`, for which the result in the experiment on Staphylococcus aureus [17] was inactive. For the same molecule, the outcome in the experiment on Pseudomonas aeruginosa [18], with Pseudomonas aeruginosa [19], in the experiment with Staphylococcus aureus [20] and in the experiment with Pseudomonas aeruginosa [8] was Active. The MIC was 7.81 µg/mL in the experiment with Staphylococcus aureus [5]; 0.98 µg/mL against Pseudomonas aeruginosa [6]; 62.5 µg/mL with Staphylococcus aureus [9]; 1.95 µg/mL in the experiment on Pseudomonas aeruginosa [10]; 15.6 µg/mL with Staphylococcus aureus [13]; 1.95 µg/mL in the experiment with Pseudomonas aeruginosa [14]. Moreover, the MBC is 1000 µg/mL with Pseudomonas aeruginosa [7], 500 µg/mL with Pseudomonas aeruginosa [11] and 500 µg/mL in the experiment with Pseudomonas aeruginosa [16]. Also, the Ratio in the experiment on Staphylococcus aureus [21] and with Pseudomonas aeruginosa [22] was 4 in each case. In addition, the MBC99.9 entry in the experiment with Staphylococcus aureus [12], in the experiment with Staphylococcus aureus [15] and in the experiment with Staphylococcus aureus [2] was “inactive” throughout.

Turning to `O=S(=O)(O)O`, the MIC entry in the experiment with Staphylococcus aureus [1] and in the experiment with Pseudomonas aeruginosa [3] was “inactive” throughout. Also, the MBC99.9 result with Staphylococcus aureus [2] and in the experiment with Pseudomonas aeruginosa [4] was “inactive” each time.
